Measurements as given in patent US11505560B2, “Heterobifunctional compounds with improved specificity” (DANA-FARBER CANCER INSTITUTE, INC., priority 2017, dated 2022).
Entries after “also recorded” stand apart in the source; their conditions may differ.

How the values were obtained:
[1] = system: BRD2BD1, BRD2BD2, BRD3BD1, BRD3BD2, BRD4BD1, BRD4BD2 GFP constructs; assay: Cellular imaging-based degradation assay (bromodomain-GFP with mCherry reporter); type: cell-based, human; settings: for bromodomain degradation activity and selectivity (in words): 5 h incubation, cellular imaging
Method: Cells stably expressing bromodomain-GFP with mCherry reporter were seeded at 30-50% confluency in 384 well plates (3764, Corning) with 50 μL FluoroBrite DMEM media (Gibco, A18967) containing 10% FBS per well a day before compound treatment. Compounds (see Figure legends) were dispensed using D300e Digital Dispenser (HP) normalized to 0.5% DMSO and incubated with cells for 5 h. The assay plate was imaged immediately using Acumen eX3/HCl (TTPLabtech) High Content Imager with 488 nm and 561 nm lasers in 2 μm×1 μm grid per well format. The resulting images were analyzed using CellProfiler™ (Carpenter, et al., GenomeBiology 7:r100 (2006)). A series of image analysis steps (‘image analysis pipeline’) was constructed.
The CellProfiler™ pipeline steps are briefly outlined here. First, the red and green channels were aligned and cropped to target the middle of each well (to avoid analysis of heavily clumped cells at the edges), and a background illumination function was calculated for both red and green channels of each well individually and subtracted to correct for illumination variations across the 384-well plate from various sources of error. An additional step was then applied to the green channel to suppress the analysis of large auto fluorescent artifacts and enhance the analysis of cell specific fluorescence by way of selecting for objects under a given size, 30 A.U., and with a given shape, speckles. mCherry-positive cells were then identified in the red channel filtering for objects between 8-60 pixels in diameter and using intensity to distinguish between clumped objects. The green channel was then segmented into GFP positive and negative areas and objects were labeled as GFP positive if at least 40% of it overlapped with a GFP positive area. The fraction of GFP-positive cells/mCherry-positive cells (GFP/mCherry ratio) in each well was then calculated, and the green and red images were rescaled for visualization. The GFP/mCherry ratio was normalized to DMSO and analyzed in GraphPad Prism 7.

[2] = target: T1, IKZF1Δ-CRBN complex formation (Homo sapiens, UniProt Q13422+Q96SW2, DEL197-239); assay: CRBN-IKZF1Δ binding assay (TR-FRET); settings: IKZF1Δ and DDB1ΔB-CRBN
T1 construct: made in house; host or cells: Trichoplusia ni High-Five insect cells (baculovirus)
Method: Compounds in CRBN mutants dimerization assay were dispensed as described above into 200 nM His6-DDB1-His6-CRBNmutants or 200 nM His6-DDB1ΔB-His6-CRBNWT, 100 nM BRD4BD1-BODIPY-SpyCatcher and 2 nM terbium-anti-HIS Ab (Invitrogen) in a buffer containing 50 mM Tris pH 7.5, 100 mM NaCl, 0.1% Pluronic F-68 solution (Sigma) and 2% DMSO (4% DMSO final). Before TR-FRET measurements were conducted, the reactions were incubated for 15 min at RT. […] The TR-FRET signal of each data point was extracted by calculating the 520/490 nm ratio. […] The peak height of TR-FRET dBET dose response data was calculated in GraphPad Prism 7 using Area Under Curve analysis for three independent replicates (n=3) and the mean peak height and standard deviation calculated.
The standard deviation in IKZF1A TR-FRET compound titrations was calculated from three biological replicates (n=3) as an average of 5 technical replicates per well per experiment, or as an average of 5 technical replicates of single experiment for unlabelled protein titrations.

[3] = target: T2, IKZF1Δ-EGFP fusion protein (Homo sapiens, UniProt Q13422+Q96SW2, DEL197-239); assay: IKZF1Δ-EGFP fusion protein degradation reporter assay (flow cytometry); type: cell-based; settings: HEK293T cells
T2 construct: expressed in transfected cells; HEK293T cells
Method: (§1) IKZF1A, BRD2BD1, BRD2BD2, BRD3BD1, BRD3BD2, BRD4BD1, and BRD4BD2 were subcloned into mammalian pcDNA5/FRT Vector (Ampicillin and Hygromycin B resistant) modified to contain MCS-eGFP-P2A-mCherry. […] Following 2-3 passage cycle FACS (FACSAria II, BD) was used to enrich for cells expressing eGFP and mCherry.
(§2) Signal from 5000 cells per well was acquired in singlicate or duplicate and the eGFP and mCherry florescence monitored. Data was analyzed using FlowJo (FlowJo, LCC). […] The eGFP protein abundance relative to mCherry was then quantified as a ten-fold amplified ratio for each individual cell using the formula: 10×eGFP/mCherry. The median of the ratio was then calculated per set, normalized to the median of the DMSO ratio, and is denoted as relative abundance. Standard deviation is calculated from four replicates (n=4) unless described otherwise.

[4] = system: BRD2BD1, BRD2BD2, BRD3BD1, BRD3BD2, BRD4BD1, BRD4BD2 EGFP constructs; assay: EGFP/mCherry reporter assay on individual BET bromodomains (flow cytometry); type: cell-based, human; settings: for selectivity of degradation across BET bromodomains (in words): BRD2/3/4 BD1 and BD2
Method: as §1, §2

BRD4BD1-EGFP = target: T3, BRD4BD1-EGFP (Homo sapiens, UniProt O60885+Q96SW2); assay: BRD4BD1-EGFP/mCherry reporter cellular degradation assay (flow cytometry); type: cell-based; settings: 5 h treatment
T3 construct: expressed in transfected cells
Method: as §1, with “Reporter cells that stably express BRD4BD1-EGFP followed by a P2A splice site separated mCherry, were treated with increasing concentrations of dBET molecules (FIG. 3A-FIG. 3F). […] IKZF1A,” for “IKZF1A,”
as §2

[5] = system: BRD2 and BRD3 in HEK293T cells; assay: Immunoblot for cellular degradation of BRD2 and BRD3; type: cell-based, human
Method: (§3) HEK293T cells were treated with increasing concentrations of ZXH-03-26.

[6] = target: T4, endogenous BRD4 in HEK293T cells (Homo sapiens, UniProt O60885); assay: Immunoblot for cellular degradation of endogenous BRD4; type: cell-based; settings: 5 hours
T4 construct: retains activity on endogenous full length BRD4; endogenous in cells; host or cells: HEK293T
Method: as §3

[7] = system: IKZF1, IKZF3 and ZFP91 in MM.1s cells; assay: Quantitative proteomics (TMT LC-MS3) in MM.1s cells; type: cell-based, human; settings: 1 μM, five hours
Method: A micro-BCA assay (Pierce) was used to determine the final protein concentration in the cell lysate. […] Proteins were precipitated using methanol/chloroform. In brief, four volumes of methanol were added to the cell lysate, followed by one volume of chloroform, and finally three volumes of water.

T1 sequence (Q96SW2 whole entry, stated change not applied): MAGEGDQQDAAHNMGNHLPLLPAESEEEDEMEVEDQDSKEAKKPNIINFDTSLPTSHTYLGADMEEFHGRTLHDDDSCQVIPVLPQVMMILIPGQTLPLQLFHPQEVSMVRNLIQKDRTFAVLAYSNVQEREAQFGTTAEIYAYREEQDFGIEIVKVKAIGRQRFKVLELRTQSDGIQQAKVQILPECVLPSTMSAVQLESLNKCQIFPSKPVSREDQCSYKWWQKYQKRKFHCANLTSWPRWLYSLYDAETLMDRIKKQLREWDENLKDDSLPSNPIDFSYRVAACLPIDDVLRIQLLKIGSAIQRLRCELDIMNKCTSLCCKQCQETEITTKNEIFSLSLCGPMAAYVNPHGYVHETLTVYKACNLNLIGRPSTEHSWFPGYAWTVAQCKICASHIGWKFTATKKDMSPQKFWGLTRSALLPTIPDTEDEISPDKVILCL
T1 sequence (Q13422 with tags, fused parts or gaps DEL197-239 limits assumed): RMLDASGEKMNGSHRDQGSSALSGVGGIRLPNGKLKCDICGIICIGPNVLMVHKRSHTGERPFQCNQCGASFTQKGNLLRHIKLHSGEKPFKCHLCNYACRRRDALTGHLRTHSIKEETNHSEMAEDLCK

Compound | bromodomain degradation activity and selectivity (in words) [1] | induction of IKZF1-CRBN complex formation / IKZF1 binding (in words) [2] | cellular IKZF1 degradation (in words) [3] | other results
Cc1sc2c(c1C)C(c1ccc(Cl)cc1)=N[C@@H](CC(=O)NCCOc1cccc3c1C(=O)N(C1CCC(=O)NC1=O)C3=O)c1nnc(C)n1-2 (stereo partly shown) [ZXH-2-42] | significantly reduced activity | greatly reduced compared to their nitrogen analogs | – | –
COC(=O)C[C@@H]1N=C(c2ccc(Cl)cc2)c2c(sc(C(=O)NCCCCCCCCOc3cccc4c3C(=O)N(C3CCC(=O)NC3=O)C4=O)c2C)-n2c(C)nnc21 (stereo partly shown) [ZXH-2-43] | potent degradation of bromodomains | greatly reduced compared to their nitrogen analogs; also recorded: reduced IKZF1 binding | reduced IKZF1 binding and IKZF1 degradation | degradation of BRD2/3/4 at low concentration (in words) ([1]; 2.6 nM concentration, 5 h): significant degradation of BRD2/3/4
COC(=O)C[C@@H]1N=C(c2ccc(Cl)cc2)c2c(sc(C(=O)NCCCCCCCCOc3ccc4c(c3)C(=O)N(C3CCC(=O)NC3=O)C4=O)c2C)-n2c(C)nnc21 (stereo partly shown) [ZXH-2-45] | potent degradation of bromodomains | greatly reduced compared to their nitrogen analogs; also recorded: reduced IKZF1 binding | reduced IKZF1 binding and IKZF1 degradation | –
COC(=O)C[C@@H]1N=C(c2ccc(Cl)cc2)c2c(sc(C(=O)NCCCNc3cccc4c3C(=O)N(C3CCC(=O)NC3=O)C4=O)c2C)-n2c(C)nnc21 (stereo partly shown) [ZXH-2-147] | – | – | – | selectivity of degradation across BET bromodomains (in words) [4]: selectively targets BRD4 for degradation and spares BRD2 and BRD3; also recorded: selective degradation of BRD4; degradation of BRD4BD1 (in words) (BRD4BD1-EGFP): active on BRD4BD1
COC(=O)C[C@@H]1N=C(c2ccc(Cl)cc2)c2c(sc(C(=O)NCCCCCNc3cccc4c3C(=O)N(C3CCC(=O)NC3=O)C4=O)c2C)-n2c(C)nnc21 (stereo partly shown) [ZXH-03-26] | – | – | – | degradation of BRD2 and BRD3 (in words) [5]: inactive on BRD2 and BRD3; concentrations at which degradation of BRD2 or 3 is spared [4]: > 10 µM; selectivity of degradation across BET bromodomains (in words) [4]: activity exclusively on the first bromodomain of BRD4; also recorded: selectively targets BRD4 for degradation and spares BRD2 and BRD3; degradation of BRD4BD1 (in words) (BRD4BD1-EGFP): active on BRD4BD1; DC50 (BRD4BD1-EGFP; GFP/mCherry ratio, read-out: DC50/5h (half-maximal degradation after 5 hours of treatment), BRD4BD1): ~5 nM; degradation of endogenous BRD4 (in words) [6]: degrades endogenous BRD4 with comparable efficacy compared to the best pan-BET degrader dBET6
COC(=O)C[C@@H]1N=C(c2ccc(Cl)cc2)c2c(sc(C(=O)NCCCCCCCCNc3cccc4c3C(=O)N(C3CCC(=O)NC3=O)C4=O)c2C)-n2c(C)nnc21 (stereo partly shown) [dBET70, reference compound] | – | pronounced complex formation | equipotent to lenalidomide | co-degradation of CRBN-lenalidomide neo-substrates IKZF1, IKZF3 and ZFP91 [7]: pronounced co-degradation of CRBN-lenalidomide neo-substrates IKZF1, IKZF3 and ZFP91
COC(=O)C[C@@H]1N=C(c2ccc(Cl)cc2)c2c(sc(C(=O)NCCCCCCCCNc3ccc4c(c3)C(=O)N(C3CCC(=O)NC3=O)C4=O)c2C)-n2c(C)nnc21 (stereo partly shown) [dBET72, reference compound] | – | pronounced complex formation | equipotent to lenalidomide | –
